According to US7067658B2, “Pyridino and pyrimidino pyrazinones” (Bristol-Myers Squibb Company, priority 2002, dated 2006):

biological target: T1, cloned human CRF1 receptors (Homo sapiens, UniProt P34998); test: CRF1 receptor binding assay (inhibition of 125I-ovine-CRF binding to membranes of 293EBNA cells transfected with hCRFR1); conditions: IC50 ranges as class symbols a-e; read-out: IC50 Range (potency of binding to CRF1 receptor)
T1 construct: the coding region is amplified by PCR from start to stop codons; expressed in transfected cells; host or cells: 293EBNA cells (episomal vector phchCRFR, hygromycin selection); membrane homogenate
T1 sequence (P34998 24-415): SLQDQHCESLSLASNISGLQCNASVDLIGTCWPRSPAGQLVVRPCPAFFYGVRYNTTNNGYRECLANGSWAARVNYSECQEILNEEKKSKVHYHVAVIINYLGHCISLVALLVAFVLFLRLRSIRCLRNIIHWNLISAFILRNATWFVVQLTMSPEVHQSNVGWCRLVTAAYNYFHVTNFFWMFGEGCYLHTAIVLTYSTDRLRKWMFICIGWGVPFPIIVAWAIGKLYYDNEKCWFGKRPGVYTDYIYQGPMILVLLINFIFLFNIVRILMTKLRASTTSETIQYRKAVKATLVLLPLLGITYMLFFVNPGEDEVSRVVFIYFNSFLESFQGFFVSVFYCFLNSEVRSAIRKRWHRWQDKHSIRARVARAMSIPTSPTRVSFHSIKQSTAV
From the text: Provided herein is an example of a CRF1 receptor binding assay that can be used for the evaluation of biological activity of compounds of the present invention. The example also includes isolation of cell membranes containing cloned human CRF1 receptors for use in the binding assay.
Messenger RNA is isolated from human hippocampus by standard techniques. The mRNA is reverse transcribed using oligo (dt) 12–18 and the coding region is amplified by PCR from start to stop codons The resulting PCR fragment is cloned into the EcoRV site of pGEMV, from whence the insert is reclaimed using XhoI+XbaI and cloned into the XhoI+XbaI sites of vector pm3ar (which contains a CMV promoter, the SV40 ‘t’ splice and early poly A signals, an Epstein-Barr viral origin of replication, and a hygromycin selectable marker). […] Cells surviving 4 weeks of selection in hygromycin are pooled, adapted to growth in suspension, and used to generate membranes for the binding assay described below. Individual aliquots containing approximately 1×10^8 of the suspended cells are then centrifuged to form a pellet and frozen.
The homogenate is centrifuged at 40,000×g for 12 min and the resulting pellet rehomogenized in 10 mL of tissue buffer. After another centrifugation at 40,000×g for 12 min, the pellet is resuspended to a protein concentration of 360 μg/ml to be used in the assay.
Binding assays are performed in 96 well plates; each well having a 300 μL capacity. […] Plates are then allowed to incubate at room temperature for 2 hours before filtering the incubate over GF/F filters (presoaked with 0.3% polyethyleneimine) using an appropriate cell harvester. Filters are rinsed 2 times with ice cold assay buffer before removing individual filters and assessing them for radioactivity on a gamma counter.

Q: For Cc1nc2c(-c3ccc(OC(F)(F)F)cc3Cl)ncnc2n(C(C)C2CC2)c1=O (stereo not shown) [Example 1062, 4-(2-Chloro-4-trifluoromethoxy-phenyl)-8-(1-cyclopropyl-ethyl)-6-methyl-8H-pteridin-7-one], which IC50 is on record?
A: The IC50 was 100 to 1000 nM.

same assay, conditions: IC50 ranges as class symbols a-e; read-out: IC50 Range* (potency of binding to CRF1 receptor)

Q: How did the IC50 turn out when CCC(C1CC1)n1c(=O)c(C)nc2c(-c3cc(Cl)c(OC)cc3C)ccnc21 (stereo not shown) [Example 452, 8-(5-Chloro-4-methoxy-2-methyl-phenyl)-4-(1-cyclopropyl-propyl)-2-methyl-4H-pyrido[2,3-b]pyrazin-3-one] was run?
A: Its IC50 is less than 1 nM.

Q: CCC(COC)n1c(=O)c(C)nc2c(-c3cc(Cl)c(OC)cc3C)ccnc21 (stereo not shown) [Example 459, 8-(5-Chloro-4-methoxy-2-methyl-phenyl)-4-(1-methoxymethyl-propyl)-2-methyl-4H-pyrido[2,3-b]pyrazin-3-one] was tested. Which IC50 did it give?
A: Its IC50 is 1 to 10 nM.

Q: With CCC(C1CC1)n1c(=O)c(C)nc2c(-c3cc(C)c(OC)cc3Cl)ccnc21 (stereo not shown) [Example 484, 8-(2-Chloro-4-methoxy-5-methyl-phenyl)-4-(1-cyclopropyl-propyl)-2-methyl-4H-pyrido[2,3-b]pyrazin-3-one] as the compound, how does the IC50 read?
A: The IC50 was less than 1 nM.

Q: For CCC(COC)n1c(=O)c(C)nc2c(-c3cc(C)c(OC)cc3Cl)ccnc21 (stereo not shown) [Example 491, 8-(2-Chloro-4-methoxy-5-methyl-phenyl)-4-(1-methoxymethyl-propyl)-2-methyl-4H-pyrido[2,3-b]pyrazin-3-one], which IC50 is on record?
A: Its IC50 is less than 1 nM.

Q: Which IC50 does the source give for CCC(C1CC1)n1c(=O)c(C)nc2c(-c3cc(F)c(N(C)C)cc3Cl)ccnc21 (stereo not shown) [Example 500, 8-(2-Chloro-4-dimethylamino-5-fluoro-phenyl)-4-(1-cyclopropyl-propyl)-2-methyl-4H-pyrido[2,3-b]pyrazin-3-one] here?
A: Its IC50 is less than 1 nM.

Q: With COCC(C)n1c(=O)c(C)nc2c(-c3cc(F)c(N(C)C)cc3Cl)ccnc21 (stereo not shown) [Example 506, 8-(2-Chloro-4-dimethylamino-5-fluoro-phenyl)-4-(2-methoxy-1-methyl-ethyl)-2-methyl-4H-pyrido[2,3-b]pyrazin-3-one] as the compound, how does the IC50 read?
A: The IC50 was 1 to 10 nM.

Q: Which IC50 does the source give for CCC(COC)n1c(=O)c(C)nc2c(-c3cc(F)c(N(C)C)cc3Cl)ccnc21 (stereo not shown) [Example 507, 8-(2-Chloro-4-dimethylamino-5-fluoro-phenyl)-4-(1-methoxymethyl-propyl)-2-methyl-4H-pyrido[2,3-b]pyrazin-3-one] here?
A: Its IC50 is less than 1 nM.

same assay, conditions: IC50 ranges, class symbols a-e; read-out: IC50 Range* (potency of binding to CRF1 receptor)

Q: With CCCC(C)n1c(=O)c(C)nc2c(-c3ccc(Cl)cc3Cl)ccnc21 (racemic) [Example 2, (R,S)-8-(2,4-dichloro-phenyl)-2-methyl-4-(1-methyl-butyl)-4H-pyrido[2,3-b]pyrazin-3-one] as the compound, how does the IC50 read?
A: Its IC50 is 10 to 100 nM.

Q: How did the IC50 turn out when CCCC(C1CC1)n1c(=O)c(C)nc2c(-c3ccc(Cl)cc3Cl)ccnc21 (racemic) [Example 5, (R,S)-4-(1-cyclopropyl-butyl)-8-(2,4-dichloro-phenyl)-2-methyl-4H-pyrido[2,3-b]pyrazin-3-one] was run?
A: Its IC50 is 1 to 10 nM.

Q: Which IC50 does the source give for COCC(C)n1c(=O)c(C)nc2c(-c3ccc(Cl)cc3Cl)ccnc21 (racemic) [Example 9, (R,S)-8-(2,4-dichloro-phenyl)-4-(2-methoxy-1-methyl-ethyl)-2-methyl-4H-pyrido[2,3-b]pyrazin-3-one] here?
A: The IC50 was 10 to 100 nM.

Q: CCC(COC)n1c(=O)c(C)nc2c(-c3ccc(Cl)cc3Cl)ccnc21 (racemic) [Example 10, (R,S)-8-(2,4-dichloro-phenyl)-4-(1-methoxymethyl-propyl)-2-methyl-4H-pyrido[2,3-b]pyrazin-3-one] was tested. Which IC50 did it give?
A: The IC50 was 1 to 10 nM.

Q: How did the IC50 turn out when CCCC(C1CC1)n1c(=O)c(C)nc2c(-c3ccc(OC)cc3C)ccnc21 (racemic) [Example 69, (R,S)-4-(1-cyclopropyl-butyl)-8-(4-methoxy-2-methyl-phenyl)-2-methyl-4H-pyrido[2,3-b]pyrazin-3-one] was run?
A: The IC50 was 1 to 10 nM.

Q: How did the IC50 turn out when CCCCC(CC)n1c(=O)c(C)nc2c(-c3ccc(OC)nc3C)ccnc21 (racemic) [Example 97, (R,S)-4-(1-ethyl-pentyl)-8-(6-methoxy-2-methyl-pyridin-3-yl)-2-methyl-4H-pyrido[2,3-b]pyrazin-3-one] was run?
A: Its IC50 is 100 to 1000 nM.

Q: Which IC50 does the source give for CCCC(C1CC1)n1c(=O)c(C)nc2c(-c3ccc(OC)nc3C)ccnc21 (racemic) [Example 101, (R,S)-4-(1-cyclopropyl-butyl)-8-(6-methoxy-2-methyl-pyridin-3-yl)-2-methyl-4H-pyrido[2,3-b]pyrazin-3-one] here?
A: The IC50 was 10 to 100 nM.

Q: How did the IC50 turn out when CCC(C)n1c(=O)c(C)nc2c(-c3ccc(OC(F)F)cc3Cl)ccnc21 (racemic) [Example 113, (R,S)-4-sec-butyl-8-(2-chloro-4-difluoromethoxy-phenyl)-2-methyl-4H-pyrido[2,3-b]pyrazin-3-one] was run?
A: Its IC50 is 10 to 100 nM.

Q: For CCCC(C1CC1)n1c(=O)c(C)nc2c(-c3ccc(OC(F)F)cc3Cl)ccnc21 (racemic) [Example 117, (R,S)-8-(2-Chloro-4-difluoromethoxy-phenyl)-4-(1-cyclopropyl-butyl)-2-methyl-4H-pyrido[2,3-b]pyrazin-3-one], which IC50 is on record?
A: Its IC50 is 1 to 10 nM.

Q: How did the IC50 turn out when CCC(C)n1c(=O)c(C)nc2c(-c3ccc(Cl)cc3Cl)ncnc21 (racemic) [Example 546, (R,S)-8-sec-Butyl-4-(2,4-dichloro-phenyl)-6-methyl-8H-pteridin-7-one] was run?
A: Its IC50 is 100 to 1000 nM.

Q: Cc1nc2c(-c3ccc(Cl)cc3Cl)ccnc2n(CC(C)C)c1=O [Example 1, (R,S)-8-(2,4-dichloro-phenyl)-4-isobutyl-2-methyl-4H-pyrido[2,3-b]pyrazin-3-one] was tested. Which IC50 did it give?
A: The IC50 was greater than 1000 nM.

Q: How did the IC50 turn out when CCCC(CCC)n1c(=O)c(C)nc2c(-c3ccc(OC)cc3Cl)ccnc21 [Example 18, (R,S)-8-(2-chloro-4-methoxy-phenyl)-2-methyl-4-(1-propyl-butyl)-4H-pyrido[2,3-b]pyrazin-3-one] was run?
A: The IC50 was 1 to 10 nM.

Q: CCCC(CCC)n1c(=O)c(C)nc2c(-c3ccc(OC)cc3Cl)ncnc21 [Example 563, 4-(2-Chloro-4-methoxy-phenyl)-6-methyl-8-(1-propyl-butyl)-8H-pteridin-7-one] was tested. Which IC50 did it give?
A: The IC50 was 1 to 10 nM.

Q: Which IC50 does the source give for CCC(C1CCC1)n1c(=O)c(C)nc2c(-c3ccc(OC)cc3Cl)ccnc21 (stereo not shown) [compound 23] here?
A: Its IC50 is 1 to 10 nM.

Q: How did the IC50 turn out when COCC(C)n1c(=O)c(C)nc2c(-c3ccc(OC)cc3Cl)ccnc21 (stereo not shown) [compound 25] was run?
A: The IC50 was 10 to 100 nM.

Q: With COCC(C)n1c(=O)c(C)nc2c(-c3ccc(OC)nc3C)ncnc21 (stereo not shown) [compound 650] as the compound, how does the IC50 read?
A: The IC50 was greater than 1000 nM.

same assay, conditions: Potency of binding to CRF1 receptor, listed as IC50 ranges; read-out: IC50 Range*

Q: CCC(COC)n1c(=O)c(C)nc2c(-c3cc(F)c(OC)cc3Cl)ccnc21 (stereo not shown) [Example 250, 8-(2-Chloro-5-fluoro-4-methoxy-phenyl)-4-(1-methoxymethyl-propyl)-2-methyl-4H-pyrido[2,3-b]pyrazin-3-one] was tested. Which IC50 did it give?
A: The IC50 was 1 to 10 nM.
